Patent US20240059658A1 (Emory University, priority 2019, published 2024)

Experiments:
[1] = system: p53; assay: p53 induction / expression (Western blot); assay type: cell-based; conditions: words or +/− grades, key not given
Method: (§1) Cells were lysed in a buffer composed of 50 mM Tris, pH 7.6, 150 mM NaCl, 1% Nonidet P-40, 10 mM sodium phosphate, 10 mM NaF, 1 mM sodium orthovanadate, 2 mM phenylmethylsulfonyl fluoride (PMSF), […], 10 μg/mL leupeptin and 10 μg/mL pepstatin. After centrifugation, the clarified cell lysate was separated from the pellet of cell debris, and then incubated with 15 μL Protein G/Protein A-agarose and 1 μg of antibodies, overnight at 4° C. For the Western blot, the resulting cell lysates or immunoprecipitates were resolved by SDS-PAGE. They were then transferred to a nitrocellulose filter and probed with the specific antibodies as listed in the supplemental Materials section. Finally, proteins were visualized with a chemiluminescent detection system.

[2] = system: 855 line; assay: WST cytotoxicity assay, 855 line; assay type: cell-based; conditions: read-out: Cancer cell cytotoxicity IC50
Method: (§2) The cytotoxic effect of MX 69 and MX69 analogs on cancer cells was determined using the water-soluble tetrazolium salt (WST) assay. Briefly, cells cultured in 96-well microtiter plates were treated with different concentrations of AQ-101 for a 20-h period. WST (25 μg/well) was then added and incubation continued for an additional 4 h, after which optical density (OD) was read with a microplate reader (test wavelength of 450 nm; reference wavelength of 620 nm).

[3] = system: 697 cell line; assay: WST cytotoxicity assay, 697 cell line; assay type: cell-based; conditions: read-out: Cancer cell cytotoxicity IC50
Method: as §2

[4] = biological target: T1, MDM2 (Homo sapiens, UniProt Q00987); assay: MDM2 reduction / expression (Western blot); assay type: cell-based; conditions: words or +/− grades, key not given
T1 construct: ubiquitination of endogenous MDM2 in EU-1 cells; endogenous in cells; host or cells: EU-1 (ALL) cells
T1 sequence (Q00987 whole entry): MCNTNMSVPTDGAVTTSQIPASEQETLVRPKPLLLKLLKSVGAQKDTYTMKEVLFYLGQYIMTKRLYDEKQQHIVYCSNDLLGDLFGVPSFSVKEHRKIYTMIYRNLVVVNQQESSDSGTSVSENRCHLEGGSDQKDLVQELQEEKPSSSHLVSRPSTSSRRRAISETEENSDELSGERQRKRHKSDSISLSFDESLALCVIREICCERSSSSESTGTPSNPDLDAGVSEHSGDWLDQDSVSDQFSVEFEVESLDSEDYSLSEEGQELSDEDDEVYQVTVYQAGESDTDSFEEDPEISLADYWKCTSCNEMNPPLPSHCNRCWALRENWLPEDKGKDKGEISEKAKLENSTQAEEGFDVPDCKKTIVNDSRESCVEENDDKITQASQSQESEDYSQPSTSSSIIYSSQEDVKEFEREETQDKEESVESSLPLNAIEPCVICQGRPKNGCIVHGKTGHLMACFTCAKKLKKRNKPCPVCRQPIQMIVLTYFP
Method: as §1

[5] = system: EU-1; assay: WST cytotoxicity assay, cancer cell EU-1; assay type: cell-based, human; conditions: Homo sapiens, EU-1, EU-1; no other cell line named in the cell; read-out: Cancer cell (EU-1) cytotoxicity IC50
How it was run: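 Pediatric ALL and NB lines grown in RPMI 1640 with 10% FBS at 37 °C, 5% CO2. Cells were exposed to a range of compound concentrations for 20 h, then WST (25 μg/well) was added for a further 4 h. OD read at 450 nm against a 620 nm reference.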

[6] = system: NB-1643; assay: WST cytotoxicity assay, NB-1643; assay type: cell-based; conditions: Homo sapiens; NB-1643 line; read-out: Cancer cell cytotoxicity IC50
Method: This study used two ALL cell lines (EU-1 and EU-3) and three NB cell lines (NB-1643, SHEP1 and LA1-55N). All 5 cancer cell lines were established from pediatric ALL or NB patients and were well-characterized for their expression of MDM2 and p53-status, as reported previously. All cell lines were grown in standard culture medium (RPMI 1640 containing 10% FBS, 2 mmol/L L-glutamine, 50 U penicillin and 50 μg/mL streptomycin) at 37° C. in a humidified atmosphere containing 5% CO2.
as §2

[7] = system: XIAP; assay: XIAP inhibition / expression (Western blot); assay type: cell-based; conditions: MDM2 reduction
Method: as §1

SMILES: Cc1ccc(NS(=O)(=O)c2ccc3c(c2)C2OCC[C@H]2[C@H](C2CCN(C(=O)OC(C)(C)C)CC2)N3)cc1C (some centres unmarked) [Compound 69L64]
- p53 induction [1]: induction
- IC50 [2]: 1.35 µM
- IC50 [3]: 0.28 µM

SMILES: CC(=O)c1ccc(NS(=O)(=O)c2ccc3c(c2)[C@H]2OCC[C@H]2C(c2ccc(C(=O)C(C)C)cc2)N3)cc1 (some centres unmarked) [Compound 69L98, N-(4-acetylphenyl)-4-(4-isobutyrylphenyl)-2,3,3a,4,5,9b-hexahydrofuro[3,2-c]quinoline-8-sulfonamide]
- p53 induction [1]: induction
- MDM2 reduction [4]: inhibition
- IC50 [5]: 1.5 µM

SMILES: CC(=O)c1ccc(C2Nc3ccc(S(=O)(=O)Nc4ccc(C)c(C)c4)cc3[C@H]3OCC[C@@H]23)cc1 (some centres unmarked) [Compound 69L38]
- IC50 [6]: 1.82 µM
- MDM2 reduction [4]: No MDM2
- IC50 [2]: 0.49 µM

SMILES: CC(=O)c1cccc(NS(=O)(=O)c2ccc3c(c2)[C@H]2OCC[C@H]2C(c2cccc(C(C)=O)c2)N3)c1 (stereo in doubt) [Compound 69L103, N,4-bis(3-acetylphenyl)-2,3,3a,4,5,9b-hexahydrofuro[3,2-c]quinoline-8-sulfonamide]
- MDM2 reduction [4]: No MDM2
- IC50 [5]: 0.97 µM

SMILES: Cc1ccc(NS(=O)(=O)c2ccc3c(c2)[C@H]2OCC[C@H]2C(c2ccc(C(=O)C4CCCCC4)cc2)N3)cc1C (some centres unmarked) [Compound 69L70]
- MDM2 reduction [4]: No MDM2
- IC50 [5]: 3.09 µM

SMILES: O=S(=O)(Nc1ccc2c(c1)CCCC2)c1ccc2c(c1)C1OCC[C@H]1[C@H](C1CCCCC1)N2 (some centres unmarked) [Compound 69L59, 4-cyclohexyl-N-(5,6,7,8-tetrahydronaphthalen-2-yl)-2,3,3a,4,5,9b-hexahydrofuran[3,2-c]quinolone-8-sulfonamine]
- IC50 [6]: 3.09 µM
- MDM2 reduction [4]: No MDM2
- IC50 [2]: 2.31 µM

SMILES: Cc1ccc(NS(=O)(=O)c2ccc3c(c2)C2OCC[C@H]2C(c2cccc(C(=O)C(C)C)c2)N3)cc1C (some centres unmarked) [Compound 69L94]
- MDM2 reduction [4]: No MDM2
- IC50 [5]: 3.56 µM

SMILES: Cc1ccc(NS(=O)(=O)c2ccc3c(c2)C2OCC[C@H]2C(c2ccc(C(O)C(C)C)cc2)N3)cc1C (stereo in doubt) [Compound 69L87, N-(3,4-dimethylphenyl)-4(4-(1-hydroxy-2-methylpropyl)phenyl)-2,3,3a,4,5,9b-hexahydrofuro[3,2-c]quinoline-8-sulfonamide]
- p53 induction [1]: inhibition
- MDM2 reduction [4]: inhibition
- IC50 [5]: 1.98 µM

SMILES: Cc1ccc(NS(=O)(=O)c2ccc3c(c2)[C@H]2NCC[C@H]2[C@@H](c2ccc(C(=O)C(C)C)cc2)N3)cc1C [Compound 69L81]
- p53 induction [1]: inhibition
- XIAP inhibition [7]: inhibition
- MDM2 reduction [4]: inhibition
- IC50 [5]: 3.2 µM

SMILES: Cc1ccc(NS(=O)(=O)c2ccc3c(c2)C2OCC[C@H]2[C@H](C2CCOCC2)N3)cc1C (some centres unmarked) [Compound 69L58, N-(3,4-dimethylphenyl)-4-(tetrahydro-2H-pyran-4-yl)-2,3,3a,4,5,9b-hexahydrofuran[3,2-c]quinolone-8-sulfonamine]
- p53 induction [1]: induction
- IC50 [6]: 2.63 µM
- MDM2 reduction [4]: inhibition
- IC50 [2]: 1.61 µM

SMILES: CC(=O)c1cccc(C2Nc3ccc(S(=O)(=O)Nc4ccc(C)c(C)c4)cc3C3OCC[C@@H]23)c1 (stereo in doubt) [Compound 69L93, 4-(3-acetylphenyl)-N-(3,4-dimethylphenyl)-2,3,3a,4,5,9b-hexahydrofuro[3,2-c]quinoline-8-sulfonamide]
- p53 induction [1]: induction
- MDM2 reduction [4]: inhibition
- IC50 [5]: 1.95 µM

SMILES: CCCC(=O)c1ccc(C2Nc3ccc(S(=O)(=O)Nc4ccc(C)c(C)c4)cc3[C@H]3OCC[C@@H]23)cc1 (some centres unmarked) [Compound 69L72]
- MDM2 reduction [4]: No MDM2
- IC50 [5]: 2.94 µM

SMILES: Cc1ccc(NS(=O)(=O)c2ccc3c(c2)[C@H]2OCC[C@H]2[C@H](C2CCC(C(C)C)CC2)N3)cc1C (some centres unmarked) [Compound 69L56, N-(3,4-dimethylphenyl)-4-(4-isopropylcyclohexyl)-2,3,3a,4,5,9b-hexahydrofuran[3,2-c]quinolone-8-sulfonamine]
- MDM2 reduction [4]: inhibition
- IC50 [5]: 10.2 µM

SMILES: Cc1ccc(NS(=O)(=O)c2ccc3c(c2)[C@H]2C=CC[C@H]2[C@H](c2ccc(C(=O)C(C)C)cc2)N3)cc1C [Compound 69L80]
- MDM2 reduction [4]: No MDM2
- IC50 [5]: 2.66 µM

SMILES: COC(=O)c1ccc([C@H]2CC(O)c3cc(S(=O)(=O)Nc4ccc(C)c(C)c4)ccc3N2)cc1 (some centres unmarked) [Compound 69L39]
- IC50 [6]: 1.61 µM
- MDM2 reduction [4]: No MDM2
- IC50 [2]: 0.68 µM

SMILES: Cc1ccc(NS(=O)(=O)c2ccc3c(c2)C2OCC[C@H]2C(c2ccc(C(=O)c4ccccc4)cc2)N3)cc1C (stereo in doubt) [Compound 69L54]
- MDM2 reduction [4]: inhibition
- IC50 [5]: 3.22 µM

SMILES: CC(=O)c1cccc(C2CC(=O)c3cc(S(=O)(=O)Nc4ccc5c(c4)CCO5)ccc3N2)c1 (centres unmarked) [Compound 69L123, 2-(3-acetylphenyl)-N-(2,3-dihydrobenzofuran-5-yl)-4-oxo-1,2,3,4-tetrahydroquinoline-6-sulfonamide]
- MDM2 reduction [4]: inhibition
- IC50 [5]: < 0.1 µM

SMILES: Cc1cc(NS(=O)(=O)c2ccc3c(c2)[C@H]2OCC[C@H]2C(c2ccc(C(=O)C(C)C)cc2)N3)ccc1F (some centres unmarked) [Compound 69L79]
- MDM2 reduction [4]: No MDM2
- IC50 [5]: 2.91 µM

SMILES: Cc1ccc(NS(=O)(=O)c2ccc3c(c2)C(=O)C[C@@H](c2ccc(C(=O)C(C)C)cc2)N3)cc1C (stereo in doubt) [Compound 69L84, N-(3,4-dimethylphenyl)-2-(4-isobutyrylphenyl)-4-oxo-1,2,3,4-tetrahydroquinoline-6-sulfonamide]
- p53 induction [1]: activation
- XIAP inhibition [7]: inhibition
- MDM2 reduction [4]: inhibition
- IC50 [5]: 0.2 to 0.6 µM

SMILES: Cc1ccc(NS(=O)(=O)c2ccc3c(c2)[C@H]2OCC[C@H]2C(c2ccc(C(=O)C(C)C)cc2)N3)cc1Cl (some centres unmarked) [Compound 69L73, N-(3-chloro-4-methylphenyl)-4-(4-isobutyrylphenyl)-2,3,3a,4,5,9b-hexahydrofuran[3,2-c]quinolone-8-sulfonamide]
- MDM2 reduction [4]: No MDM2
- IC50 [5]: 1.56 µM

SMILES: Cc1ccc(NS(=O)(=O)c2ccc3c(c2)C(=O)CC(c2cccc(C(=O)C(C)C)c2)N3)cc1C (centres unmarked) [Compound 69L114, N-(3,4-dimethylphenyl)-2-(3-isobutyrylphenyl)-4-oxo-1,2,3,4-tetrahydroquinoline-6-sulfonamide]
- XIAP inhibition [7]: inhibition
- MDM2 reduction [4]: inhibition
- IC50 [5]: < 0.1 µM

SMILES: CC(C)c1ccc(C2Nc3ccc(S(=O)(=O)Nc4cccc(C(C)O)c4)cc3[C@H]3OCC[C@@H]23)cc1 (some centres unmarked) [Compound 69L116]
- MDM2 reduction [4]: No MDM2
- IC50 [5]: 0.12 µM

SMILES: Cc1cccc(NS(=O)(=O)c2ccc3c(c2)C(=O)CC(c2ccc(C(=O)C(C)C)cc2)N3)c1 (centres unmarked) [Compound 69L99, 2-(4-isobutyrylphenyl)-4-oxo-N-(m-tolyl)-1,2,3,4-tetrahydroquinoline-6-sulfonamide]
- MDM2 reduction [4]: inhibition
- IC50 [5]: 0.23 µM

SMILES: CC(=O)c1ccc(C2CC(=O)c3cc(S(=O)(=O)Nc4ccc(C)c(C)c4)ccc3N2)cc1 (centres unmarked) [Compound 69L83, 2-(4-acetylphenyl)-N-(3,4-dimethylphenyl)-4-oxo-1,2,3,4-tetrahydroquinoline-6-sulfonamide]
- p53 induction [1]: inhibition
- MDM2 reduction [4]: inhibition
- IC50 [5]: 1.17 µM

SMILES: Cc1cc(NS(=O)(=O)c2ccc3c(c2)C(=O)CC(c2ccc(C(=O)C(C)C)cc2)N3)ccc1F (centres unmarked) [Compound 69L108, N-(4-fluoro-3-methylphenyl)-2-(4-isobutyrylphenyl)-4-oxo-1,2,3,4-tetrahydroquinoline-6-sulfonamide]
- MDM2 reduction [4]: inhibition
- IC50 [5]: 0.42 µM

SMILES: CC(=O)c1cccc(NS(=O)(=O)c2ccc3c(c2)[C@H]2OCC[C@H]2C(c2ccc(C(=O)C(C)C)cc2)N3)c1 (stereo in doubt) [Compound 69L102, N-(3-acetylphenyl)-4-(4-isobutyrylphenyl)-2,3,3a,4,5,9b-hexahydrofuro[3,2-c]quinoline-8-sulfonamide]
- XIAP inhibition [7]: inhibition
- MDM2 reduction [4]: inhibition
- IC50 [5]: 0.23 µM

SMILES: CC(=O)c1cccc(NS(=O)(=O)c2ccc3c(c2)C(=O)CC(c2ccc(C(=O)C(C)C)cc2)N3)c1 (centres unmarked) [Compound 69L113, N-(3-acetylphenyl)-2-(4-isobutyrylphenyl)-4-oxo-1,2,3,4-tetrahydro-quinoline-6-sulfonamide]
- XIAP inhibition [7]: inhibition
- MDM2 reduction [4]: inhibition
- IC50 [5]: < 0.1 µM
